Source: PubChem BioAssay (NCI)
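Results reflect a 48-hour exposure of cells in 96-well plates to compound at five concentrations. Abbreviation: GI50, concentration required for 50% inhibition of growth. Definition used: TGI = concentration required for complete inhibition of growth.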

Columns and labels:
Test in all cases: inhibition of tumour cell growth, NCI panel, 48 h
SN12C renal = test system: SN12C renal
M14 melanoma = test system: M14 melanoma
ACHN renal = test system: ACHN renal
SR leukemia = test system: SR leukemia
SK-MEL-5 melanoma = test system: SK-MEL-5 melanoma
OVCAR-5 ovarian = test system: OVCAR-5 ovarian
HS 578T breast = test system: HS 578T breast
OVCAR-4 ovarian = test system: OVCAR-4 ovarian
RXF 393 renal = test system: RXF 393 renal
EKVX NSCLC = test system: EKVX NSCLC

| SMILES | GI50 (SN12C renal) | TGI (SN12C renal) | GI50 (M14 melanoma) | TGI (M14 melanoma) | GI50 (ACHN renal) | TGI (ACHN renal) | GI50 (SR leukemia) | TGI (SR leukemia) | GI50 (SK-MEL-5 melanoma) | TGI (SK-MEL-5 melanoma) | GI50 (OVCAR-5 ovarian) | TGI (OVCAR-5 ovarian) | GI50 (HS 578T breast) | TGI (HS 578T breast) | GI50 (OVCAR-4 ovarian) | TGI (OVCAR-4 ovarian) | GI50 (RXF 393 renal) | TGI (RXF 393 renal) | GI50 (EKVX NSCLC) | TGI (EKVX NSCLC) |
| --- | --- | --- | --- | --- | --- | --- | --- | --- | --- | --- | --- | --- | --- | --- | --- | --- | --- | --- | --- | --- |
| N#CC1=C(N)Oc2c(sc3c(Br)cccc23)C1c1ccc([N+](=O)[O-])cc1 (stereo not given) | 1000 nM | 13100 nM | 96.4 nM | 11800 nM | 120 nM | 13000 nM | 48 nM | 6450 nM | 65.2 nM | 4450 nM | 1400 nM | 16400 nM | 77.4 nM | 16400 nM | 900 nM | 18700 nM | 36 nM | 2230 nM | 462 nM | 19400 nM |
| COC(=O)c1c2c(c(C)[n+]([O-])c1C)C(=O)C(NCc1ccc(OC)cc1)=CC2=O | 1620 nM | 3650 nM | 1810 nM | 3710 nM | 2350 nM | 9110 nM | 2470 nM | > 100000 nM | 1130 nM | 2390 nM | 1800 nM | 4060 nM | 3810 nM | 36600 nM | 1120 nM | 2380 nM | 1550 nM | 3700 nM | 1880 nM | 4440 nM |
| CCN1CCN(CCC(=O)Nc2cccc(-n3cc(-c4ccncc4)c(-c4ccc(Cl)c(OC)c4)n3)c2)CC1 | 623 nM | 2880 nM | 387 nM | 1730 nM | 782 nM | 2710 nM | 433 nM | 2370 nM | 507 nM | 1830 nM | 1420 nM | 4840 nM | 454 nM | 3850 nM | 919 nM | 7530 nM | 244 nM | 1430 nM | 1060 nM | 4760 nM |
| CC1(C)N=C(N)N=C(N)N1c1ccc(OCCCNC(=O)Nc2ccc(S(=O)(=O)F)cc2)c(Cl)c1 | 111 nM | > 100000 nM | 493 nM | > 100000 nM | 4450 nM | > 100000 nM | 37.6 nM | > 100000 nM | 146 nM | 13300 nM | 419 nM | > 100000 nM | 4600 nM | > 78800 nM | 4050 nM | > 100000 nM | 12900 nM | > 100000 nM | 874 nM | > 100000 nM |
| CC(C)(C)CC(C)(C)c1ccc(OCCO)cc1 | 6.38 µg/mL | 16.7 µg/mL | 9.29 µg/mL | 20.6 µg/mL | 6.05 µg/mL | > 75 µg/mL | 1.43 µg/mL | > 75 µg/mL | 0.89 µg/mL | 7.63 µg/mL | 11.9 µg/mL | 27.5 µg/mL | 4.26 µg/mL | 19.6 µg/mL | 1.5 µg/mL | 21.5 µg/mL | 8.58 µg/mL | 18.1 µg/mL | 1.34 µg/mL | 30.1 µg/mL |
| CCOC(=O)c1noc2c1CCc1c-2cn(Cc2ccc(OC)cc2)c1-c1cc(OC)c(OC)c(OC)c1 | 3920 nM | > 100000 nM | 410 nM | > 100000 nM | 3510 nM | > 100000 nM | 2090 nM | > 100000 nM | 493 nM | 66700 nM | 4720 nM | > 100000 nM | 2990 nM | > 100000 nM | 20500 nM | > 100000 nM | 2170 nM | 45600 nM | 3920 nM | > 100000 nM |
| COc1cccc2c1nc(C(F)F)n2-c1nc(-c2ccc(NS(=O)(=O)CCN(C)C)cc2)nc(N2CCOCC2)n1 | 305 nM | > 100000 nM | 243 nM | > 100000 nM | 115 nM | 11200 nM | 319 nM | 3870 nM | 204 nM | 1760 nM | 90.9 nM | 17300 nM | 66.4 nM | 500 nM | 138 nM | 2580 nM | 105 nM | 580 nM | 71.2 nM | 1700 nM |
